The record followed here is patent US9492436B2, “Azabenzimidazole derivatives” (Boehringer Ingelheim International GmbH, priority 2013, dated 2016).

For data set [1], the system named is plasma proteins. Kind of data set: Plasma protein binding by equilibrium dialysis, rat plasma. The class given is in vitro ADME. The following applies: 37° C. The procedure:
(§1) Equilibrium dialysis (ED) technique is used to determine the approximate in vitro fractional binding of test compounds to plasma proteins (human, rat mouse):
(§2) Teflon dialysis cells or RED-devices are used. Each cell consists of a donor and an acceptor chamber, separated by an ultrathin semipermeable membrane (cutoff 5-10 kDa, high permeability).
(§3) Stock solutions for each test compound are prepared in DMSO. Plasma (anticoagulant EDTA) is spiked with test compound and then transferred into the donor chamber, while dialysis buffer (PBS containing Dextran, pH 7.4) is dispensed into the acceptor chamber.
(§4) Dextran (Leuconostoc ssp, MW approx. 40000, No. 31389, Fluka) concentration [g/L] in PBS for species: • human: 40 g/L buffer • rat: 37 g/L buffer • mouse 32 g/L buffer.
(§5) Incubation is carried out for up to 6 hours (standard 3 h) under rotation at 37° C. After the dialysis period aliquots of both dialysates are analysed using HPLC-MS/MS.
(§6) Percent bound is calculated according to the equation: % bound=(Cp−Cb/Cp)×100 • Cp=plasma concentration • Cb=buffer concentration
(§7) Percent free is calculated according to the equation: % free=100−% bound

The nature of data set [2]: Aqueous solubility (buffer vs acetonitrile/water, 24 h shaking, LC-UV). The class given is physicochemical. The following applies: kinetic from dmso stock, 2.5% DMSO, ">" = more than 90% dissolved. The procedure: The aqueous solubility of the compounds of the invention is determined by comparing the amount dissolved in buffer to the amount in an acetonitrile/water (1/1) solution. Starting from a 10 mM DMSO stock solution aliquots are diluted with acetonitrile/water (1/1) or buffer resp. After 24 h of shaking, the solutions are filtrated and analyzed by LC-UV. The amount dissolved in buffer is compared to the amount in the acetonitrile solution.
Solubility is usually being measured from 0.001 to 0.125 mg/ml at a DMSO concentration of 2.5%. If more than 90% of the compound is dissolved in buffer, the value is marked with “>”.

Data set [3] has as its system plasma proteins. In words: Plasma protein binding by equilibrium dialysis, mouse plasma. The class given is in vitro ADME. The settings on record: 37° C. Here is the method: as §1, §2, §3, §4, §5, §6, §7
For data set [4], the target named is T1, AMPK complex 1 (containing alpha1beta1gamma1) (Homo sapiens, UniProt Q13131+Q9Y478).
T1 construct: GST (Glutathion S transferase) (N); made in house; host or cells: baculovirus; virus made in Sf9, expression in High Five cells
Kind of data set: In vitro AMPK activation assay (ADP-Glo Kinase Assay). The class given is biochemical. The following applies: 30 μM ATP, 1 μM peptide, 60 min, room temperature. The method, boiled down: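 GST-tagged human AMPK alpha1beta1gamma1 expressed in insect cells, incubated with 1 μM peptide substrate and 30 μM ATP for 60 min at room temperature, 0.1% DMSO. ADP-Glo luminescence as % of vehicle control (AMP 30 μM high reference); EC50 from 4-parameter fit; activation above 100%.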

For data set [5], the system named is plasma proteins. In words: Plasma protein binding by equilibrium dialysis, human plasma. The class given is in vitro ADME. The following applies: 37° C. The procedure: as §1, §2, §3, §4, §5, §6, §7

Each structure is given as a SMILES string. Converted amounts (≈) assume the structure as drawn.

T1 sequence (Q13131 whole entry): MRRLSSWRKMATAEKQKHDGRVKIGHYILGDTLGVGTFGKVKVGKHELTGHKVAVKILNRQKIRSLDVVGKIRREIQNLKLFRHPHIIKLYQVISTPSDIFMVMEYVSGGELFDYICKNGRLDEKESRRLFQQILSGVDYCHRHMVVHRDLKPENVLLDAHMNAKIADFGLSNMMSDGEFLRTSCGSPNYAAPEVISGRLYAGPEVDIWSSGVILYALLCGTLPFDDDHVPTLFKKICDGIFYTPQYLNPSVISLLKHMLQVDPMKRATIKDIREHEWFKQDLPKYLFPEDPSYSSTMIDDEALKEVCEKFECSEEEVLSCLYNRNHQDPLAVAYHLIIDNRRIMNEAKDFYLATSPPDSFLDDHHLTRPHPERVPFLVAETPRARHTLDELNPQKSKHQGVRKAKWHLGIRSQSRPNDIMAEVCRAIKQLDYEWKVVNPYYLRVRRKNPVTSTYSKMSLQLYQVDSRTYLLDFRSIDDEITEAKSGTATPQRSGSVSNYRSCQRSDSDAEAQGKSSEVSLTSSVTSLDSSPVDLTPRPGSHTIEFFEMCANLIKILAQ
T1 sequence (Q9Y478 whole entry): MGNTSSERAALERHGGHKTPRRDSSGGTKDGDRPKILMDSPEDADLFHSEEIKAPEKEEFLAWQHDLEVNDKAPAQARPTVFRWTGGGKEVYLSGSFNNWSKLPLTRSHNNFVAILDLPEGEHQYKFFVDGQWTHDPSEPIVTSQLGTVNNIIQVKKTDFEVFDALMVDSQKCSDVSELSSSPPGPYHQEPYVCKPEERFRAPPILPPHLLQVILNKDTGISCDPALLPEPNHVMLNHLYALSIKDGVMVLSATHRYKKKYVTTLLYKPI
T1 sequence (P54619 whole entry partner): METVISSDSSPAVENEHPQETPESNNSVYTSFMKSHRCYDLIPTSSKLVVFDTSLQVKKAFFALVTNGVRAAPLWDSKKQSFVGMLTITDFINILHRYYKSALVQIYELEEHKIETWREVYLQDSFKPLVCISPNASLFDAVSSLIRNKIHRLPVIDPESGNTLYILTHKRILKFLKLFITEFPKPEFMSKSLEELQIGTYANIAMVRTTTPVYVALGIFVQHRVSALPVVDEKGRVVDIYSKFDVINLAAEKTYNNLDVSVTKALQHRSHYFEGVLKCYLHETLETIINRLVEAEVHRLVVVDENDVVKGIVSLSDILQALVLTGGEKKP

On to `CN=S(C)(=O)c1ccc(-c2ccc(-c3nc4[nH]c(O[C@@H]5CO[C@H]6[C@@H]5OC[C@H]6O)nc4cc3Cl)cc2)cc1` (stereo partly drawn) [Example 10, (3R,3aR,6R,6aR)-6-(6-Chloro-5-(4′-(N,S-dimethylsulfonimidoyl)biphenyl-4-yl)-3H-imidazo[4,5-b]pyridin-2-yloxy)hexahydrofuro[3,2-b]furan-3-ol], for which the results for the “Plasma Protein Binding” value in data set [1], in data set [3] and in data set [5] were 98.23 % bound, 98.64 % bound and 98.92 % bound, respectively. Further, the values for the solubility at 24 h in data set [2] (pH 2.2 buffer), in data set [2] (pH 4.5 buffer) and in data set [2] (pH 6.8 buffer) were 105 µg/mL (≈ 194 µM), less than 1 µg/mL and less than 1 µg/mL, respectively. The molecule further showed an EC50 in data set [4] of 4 nM.
For `CS(C)(=O)=Nc1ccc(-c2ccc(-c3nc4[nH]c(O[C@@H]5CO[C@H]6[C@@H]5OC[C@H]6O)nc4cc3Cl)cc2)cc1` [Example 2, N-(4′-(6-Chloro-2-((3R,3aR,6R,6aR)-6-hydroxyhexahydrofuro[3,2-b]furan-3-yloxy)-3H-imidazo[4,5-b]pyridin-5-yl)biphenyl-4-yl)-S,S-dimethylsulfoximide], the “Plasma Protein Binding” value in data set [1] is 98.67 % bound; in data set [3], 98.68 % bound; in data set [5] it was 98.55 % bound. In addition, the solubility at 24 h in data set [2] (pH 2.2 buffer) turned out to be 17 µg/mL (≈ 31.4 µM); in data set [2] (pH 4.5 buffer) it was 2 µg/mL (≈ 3.7 µM); in data set [2] (pH 6.8 buffer) it was 1 µg/mL (≈ 1.85 µM). For the same molecule, a half-maximal response in data set [4] (EC50) required 3 nM.
On to `CS(C)(=O)=Nc1ccc(-c2ccc(-c3nc4[nH]c(O[C@@H]5CO[C@H]6[C@@H]5OC[C@H]6O)nc4cc3Cl)cc2)cn1` [Example 22, N-(5-(4-(6-Chloro-2-((3R,3aR,6R,6aR)-6-hydroxyhexahydrofuro[3,2-b]furan-3-yloxy)-3H-imidazo[4,5-b]pyridin-5-yl)phenyl)pyridin-2-yl)-S,S-dimethylsulfoximide], for which the results for the solubility at 24 h in data set [2] (pH 2.2 buffer), in data set [2] (pH 4.5 buffer) and in data set [2] (pH 6.8 buffer) were less than 80 µg/mL, more than 7 µg/mL and less than 1 µg/mL, respectively. This molecule showed an EC50 in data set [4] of 45 nM.
The like results for `CS(C)(=O)=NCC1CCN(c2ccc(-c3nc4[nH]c(O[C@@H]5CO[C@H]6[C@@H]5OC[C@H]6O)nc4cc3Cl)cc2)CC1` [Example 31, N-(1-(4-(6-Chloro-2-((3R,3aR,6R,6aR)-6-hydroxyhexahydrofuro[3,2-b]furan-3-yloxy)-3H-imidazo[4,5-b]pyridin-5-yl)phenyl)piperidin-4-ylmethyl)-S,S-dimethylsulfoximide] were, in that order, more than 122 µg/mL, 105 µg/mL (≈ 187 µM), 89 µg/mL (≈ 158 µM) and 17 nM.
As to `CS(C)(=O)=NCc1ccc(-c2ccc(-c3nc4[nH]c(O[C@@H]5CO[C@H]6[C@@H]5OC[C@H]6O)nc4cc3Cl)cc2)cc1` [Example 45, N-(4′-(6-Chloro-2-((3R,3aR,6R,6aR)-6-hydroxyhexahydrofuro[3,2-b]furan-3-yloxy)-3H-imidazo[4,5-b]pyridin-5-yl)biphenyl-4-ylmethyl)-S,S-dimethylsulfoximide], the “Plasma Protein Binding” value is given as 98.94 % bound in data set [1], 99.23 % bound in data set [3] and 98.48 % bound in data set [5]. For the same molecule, the solubility at 24 h is more than 119 µg/mL in data set [2] (pH 2.2 buffer), 5 µg/mL (≈ 9.01 µM) in data set [2] (pH 4.5 buffer) and less than 1 µg/mL in data set [2] (pH 6.8 buffer). Also, the EC50 in data set [4] was found to be 29 nM.
